# Source: US11248016B2, “Glycolipids and pharmaceutical compositions thereof for use in therapy” (THE UNIVERSITY OF NOTTINGHAM, priority 2014, dated 2022)
# Columns and labels:
# white blood cells = experiment: White blood cells in the primary canine tissue sample; type: cell-based; conditions: seen under the microscope, 6 days
# Description: (§1) Known inhibitors of protein synthesis such as hippuristanol have proven potent anti-cancer properties when used in combination with chemotherapeutic agents such as Cisplatin™ or Doxorubicin™. However hippuristanol is naturally found in coral to is scarce and expensive to obtain, furthermore it is very difficult and expensive to synthesise. […] In particular this combination has a potent effect at slowing proliferation or killing cancer cells. Slow growing and difficult to treat tumour cell types such as A549 lung cancer cells, SH-SY5Y neuroblastoma or SKOV-3 cancer cells are all sensitised by exposure to Formula II to very low doses of Cisplatin™ (FIGS. 4d, 4e, 4f and 7)—a complete kill can be achieved in both A549 and SH-SY5Y cells after a single dose treatment with g quantities of a compound of Formula II in combination with 1 μM or 2.5 μM treatments of Cisplatin™. A similar effect is observed when rapidly growing tumour cell lines or primary tumour cells (FIG. 8) are treated with a compound of Formula II and chemotherapeutics such as Cisplatin™. In this example primary tumour cells were isolated from a dog and then in vitro exposed to the compound of Formula II and Cisplatin™. […]
# [1] = tested on: SKOV3 ovarian cancer cells; experiment: Cell proliferation, SKOV3; type: cell-based; conditions: 96 hours
# Protocol: Growth of SKOV3 cell lines were slowed by the treatment with a compound of Formula II at higher doses. Experiment represents 6 biological repetitions, Error=S.E.M.
# Cisplatin™ resistant SKOV-3 ovarian cancer cells were sensitised to treatment with a compound of Formula II in combination with 2.5 μM Cisplatin™ (p=0.003) (right hand bar in the figure), no effect is observed from treatment with equivalent levels of a compound of Formula II alone (left hand bar in the figure) or Cisplatin™ alone.
# (§2) Prior to treatment cells were cultured to an appropriate confluency in 96 well tissue culture plates (Fisher). Cells remained either supplemented with fresh media or treated with fresh media containing active or an equivalent volume of DMSO (vehicle control). Where used, Cisplatin™ was diluted to a stock concentration in Dimethylformamide (DMF), then handled as per the manufacturer's instructions. To determine relative cell viability, reagents WST-1 (Roche) or MTT (Sigma) were used as per the manufacturer's instructions and absorbance at 450 nm measured using a Victor plate reader (Perkin Elmer).
# NLGN2 5′UTR = experiment: NLGN translation reporter assay, neuroligin 2; type: cell-based, human; conditions: equivalent treatment; FIG. 5 and FIG. 10
# Protocol: The mechanism of action and level of activity of Formula II are consistent with and comparative to a proven translational inhibitor extracted from a rare coral species (Hippuristanol—a proven inhibitor of eIf4A). In this experiment 1 μM of Hippuristanol and 1.3 μM of Formula I was used
# FIG. 10—Compound 46, NLGN Translation reporter assay.
# Treatment with the compound of Formula II (and compound 46) (FIG. 5 and FIG. 10) selectively decrease the firefly luciferase signal from a reporter construct containing the NLGN1 5′UTR upstream of a firefly luciferase gene. The translation of luciferase reporters downstream of the NLGN1 5′UTR has been proven to be dependent on the activity of the translation initiation complex eIF4F (Gkogkas et al Nature 2013, 493:371-7)—a complex containing the helicase eIF4A. […]
# (§3) Cells were transfected using FuGene 6 (Roche) following the manufacturer's instructions. The activities of firefly and renilla luciferase in lysates prepared from transfected cells were measured using a commercially available Luciferase reporter assay system (Promega) and light emission was measured over a 10 sec interval using a TECAN luminometer. […]
# breast cancer cells MCF7 = experiment: Cell proliferation, MCF7; type: cell-based; conditions: 96 hours, Formula II only
# Protocol: Growth of MCF7 cell lines were slowed by the treatment with a compound of Formula II. Experiment represents 6 biological repetitions, Error=S.E.M.
# as §2
# [2] = tested on: SH-SY5Y neuroblastoma cancer cells; experiment: Cell proliferation, SH-SY5Y; type: cell-based; conditions: 96 hours, plus 2.5 μM Cisplatin, higher doses (10 μg) of Formula II
# actin 5′UTR = experiment: 5′UTR firefly luciferase reporter assay, actin; type: cell-based, human; conditions: Neuroblastoma cells; FIG. 3d
# Protocol: (§4) The 5′UTRs of genes which negatively associate with the progression of Alzheimer's disease—amyloid precursor protein (APP) and beta secretases (BACE) are all inhibited by treatment with a compound of Formula II, whereas the equivalent reporter levels of housekeeping genes actin and thioredoxin (TXN) are not inhibited. […] Neuroblastoma cells were transfected 24 hours prior to treatment with a compound of Formula II. After treatment, cells were prepared as described in the materials and methods. Each experiment represents between 6 and 8 biological repetitions.
# (§5) Experiments conducted using Firefly luciferase reporter plasmids containing the 5′ untranslated regions (UTRs) of the genes amyloid precursor protein (APP), thioredoxin (TXN) were conducted with reagents and materials described by Bottley et al, 2010. Experiments conducted using Firefly luciferase reporter plasmids containing the 5′ UTRs of the genes EGFR, BACE1 and Actin were conducted with reagents and materials described by Webb, 2012 (http://etheses.nottingham.ac.uk/2724/). […]
# as §3
# [3] = tested on: beta secretases (BACE) 5′UTR; experiment: 5′UTR firefly luciferase reporter assay, BACE; type: cell-based, human; conditions: Neuroblastoma cells; FIG. 3d
# Protocol: as §4, §5, §3
# [4] = tested on: primary canine histocytic sarcoma tumour cells; experiment: Primary canine tumour cell experiments; type: cell-based, dog; conditions: Cisplatin (10 μM) plus Formula II, 6 days
# Protocol: Cells were cultured for 6 days with a single dose treatment of Cisplatin™ (10 μM) or a combination of Cisplatin™ plus a compound of Formula II (active). Images were taken after 6 days treatment and are representative of three independently treated wells. Each image (40× magnification) represents the majority of the well area and is of an equivalent area in each photograph.
# as §1, with “Cisplatin™.” for “Cisplatin™. A similar effect is observed when rapidly growing tumour cell lines or primary tumour cells (FIG. 8) are treated with a compound of Formula II and chemotherapeutics such as Cisplatin™. In this example primary tumour cells were isolated from a dog and then in vitro exposed to the compound of Formula II and Cisplatin™.”
# [5] = tested on: breast cancer cells MDA-MB-231; experiment: Cell proliferation, MDA-MB-231; type: cell-based; conditions: 96 hours, Formula II only
# Protocol: Growth of MDA-MB-231 cell lines were slowed by the treatment with a compound of Formula II. Experiment represents 6 biological repetitions, Error=S.E.M.
# as §2
structure (smiles),measurement,setting,value
"CC/C=C\C/C=C\C/C=C\CCCCCCCC(=O)OC[C@H](COC1OC(CO)C(O)C(O)C1O)OC(=O)CCCCCCC/C=C\C/C=C\C/C=C\CC (stereo partly drawn) [Formula II, 1,2-dioctadecatienyl-3-O-β-D-galactosyl-sn-glycerol]",white blood cells after Cisplatin and Formula II treatment,white blood cells,still alive
same,growth of SKOV3 cells,"[1]; Formula II only, at higher doses",slowed
same,"effect on SKOV-3 cells, compound alone","[1]; equivalent levels of Formula II alone, FIG. 4f",no effect
same,sensitisation of SKOV-3 cells to Cisplatin,[1]; in combination with 2.5 μM Cisplatin (p=0.003),sensitised
same,signal of NLGN2 5′UTR firefly luciferase reporter,NLGN2 5′UTR,little effect
same,growth of MCF7 cells,breast cancer cells MCF7,slowed
same,kill of SH-SY5Y cells in combination with Cisplatin,[2],complete kill
same,"firefly luciferase reporter levels, actin 5′UTR",actin 5′UTR,not inhibited
same,"firefly luciferase reporter activity, BACE 5′UTR",[3],inhibited
same,canine tumour cells after Cisplatin plus Formula II,[4],substantially all tumour cells were killed
same,growth of MDA-MB-231 cells,[5],slowed
